Values after ≈ are worked out from the molar mass of the structure shown. Where two headings read alike, the source gives them in different places.
Assays:
[1] = Nitric oxide (NO) radical scavenging activity (Griess reaction); details: pure compounds
Protocol: The technique was adapted and modified from the study of Thadhani et al.. The Griess reaction was used to determine the NO radical scavenging activity. The NO radicals were generated from 10 mM sodium nitroprusside (SNP) in phosphate-buffered saline (PBS), pH 7.3. A range of sample concentrations (10 µL, 0.625–5 mg/mL) were reacted with 10 mM SNP in PBS at pH 7.3 (90 µL) at room temperature for 90 min in a 96-well plate under visible polychromatic light. Afterward, 1% sulfanilamide in 5% H3PO4 (50 µL) was added to the preincubated extract, followed by subsequent incubation in a dark condition with ambient temperature for 5 min. Following that, 50 µL of 0.1% w/v N-(1-naphtyl)-ethylenediamine (NED) in distilled water was added to each well before incubating at room temperature for 30 min in a dark condition. The diazotization of sulfanilamide with a nitrite ion occurred, followed by a coupling reaction with NED solution to generate a magenta-colored chromophore. The absorbance was measured using a microplate reader at 540 nm. Quercetin was used as a positive control. […] A solvent was used as a control. The percentage inhibition was calculated using Equation (5). (5) % Inhibition=Absorbance control−Absorbance sample/Absorbance control×100

Human recombinant 5-LOX = target: T1, Human recombinant 5-LOX (Homo sapiens, UniProt P09917); assay: 5-Lipoxygenase inhibitory assay; assay type: biochemical
T1 construct: purchased Cayman Chemical
T1 sequence (P09917 1-674): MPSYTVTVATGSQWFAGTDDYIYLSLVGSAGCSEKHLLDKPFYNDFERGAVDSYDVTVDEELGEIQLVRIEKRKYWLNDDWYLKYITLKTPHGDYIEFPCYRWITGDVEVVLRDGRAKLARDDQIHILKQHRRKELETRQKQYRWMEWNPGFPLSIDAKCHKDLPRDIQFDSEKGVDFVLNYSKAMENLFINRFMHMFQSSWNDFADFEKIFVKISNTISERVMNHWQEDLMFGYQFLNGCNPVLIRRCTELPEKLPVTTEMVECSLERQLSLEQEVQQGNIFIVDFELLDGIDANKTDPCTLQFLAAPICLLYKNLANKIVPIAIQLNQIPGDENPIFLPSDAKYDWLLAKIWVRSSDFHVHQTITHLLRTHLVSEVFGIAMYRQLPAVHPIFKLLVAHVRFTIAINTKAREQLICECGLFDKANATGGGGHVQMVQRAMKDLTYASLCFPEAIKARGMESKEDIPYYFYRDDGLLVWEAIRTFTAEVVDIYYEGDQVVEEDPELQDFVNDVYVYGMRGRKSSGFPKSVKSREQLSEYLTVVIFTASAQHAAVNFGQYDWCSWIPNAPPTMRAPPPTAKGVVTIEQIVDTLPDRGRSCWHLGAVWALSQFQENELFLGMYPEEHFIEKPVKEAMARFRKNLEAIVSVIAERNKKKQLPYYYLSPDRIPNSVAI
Protocol: We performed this method according to a previous study with some modifications. Human recombinant 5-LOX (Cayman Chemical, E.C. 1.13.11.34, Ann Arbor, MI, USA) was used in this study. Various concentrations of 20 µL of the tested samples (dissolved in polysorbate-20 and DMSO) were plated in a 96-well UV transparent plate followed by the addition of 100 µL of 0.1 M potassium phosphate buffer, pH 6.3. The mixture was maintained at 25 °C before the addition of enzyme. We added 20 µL of 100 U 5-LOX enzyme (in 0.1 M potassium phosphate buffer, pH 6.3) to the sample solution followed by a 4 min incubation at 25 °C. Afterward, the reaction was initiated by adding 10 µL of 1 mM arachidonic acid as a substrate. The incubation was performed at 25 °C for 30 min, and the absorbance was measured at 234 nm using a microplate reader. The nonenzymatic control was used as a background. […] The experiments were performed in two rounds to generate five replicate wells in total. The percentage of inhibition was calculated by Equation (8), and the IC50 values were determined. (8) % Inhibition=Absorbance control−Absorbance sample/Absorbance control×100

[2] = tested on: keratinocyte (HaCaT) cells; parameters: method as in earlier work; details: cited from earlier work
[3] = Ferric reducing antioxidant power (FRAP); details: pure compound
Protocol: Each extract/EOs sample (10 µL) was added to each well of a 96-well plate at various concentrations (1–5 mg/mL), followed by a freshly prepared FRAP reagent (190 µL). The mixture was then incubated at room temperature for 4 min. Vivid blue resulted from the […]. The absorbance was further measured at 595 nm. The FRAP value (Equation (6)) was determined by calculating the concentration of ferric ions in the samples relative to the calibration curve of FeSO4 (FRAP value in µM FeSO4/mg dry weight of extract). (6) FRAP value=C ×v (mL)/d × c (mg/mL) where C is the calibrated sample concentration, v is the volume sample, d is the dilution factor, and c is the concentration of the tested sample.

[4] = topical application, mouse model, 1000 mg/kg; cited from earlier work
Staphylococcus aureus = assay: Broth dilution assay (MIC); assay type: cell-based; details: pure compounds, inactive at >200 µg/mL
Protocol: The MIC values were determined using a broth dilution assay. Tetracycline used as an antibiotic was dissolved in 50% ethanol while EOs, extracts, and pinostrobin dissolved in DMSO (0.2% v/v) were suspended in an LB medium to obtain the final concentrations of EOs/extract, pinostrobin, and tetracycline in the range of 0.1562–200 µg/mL. Then, 20 µL of the bacterial culture with an OD600 value of ~0.5 was taken into each tube, which was continuously inoculated. Afterward, the treated culture was incubated at 37 °C for 24 h in a shaking condition (180 rpm). The absorbance was further measured at 600 nm. An LB medium and 0.2% DMSO were used as positive controls, while the cell culture without treatment in an LB medium was used as a negative control. The experiments were performed in triplicate.

Question: Which “NO Radical; IC50” value [1] does the source give for `COc1cc(O)c2c(c1)O[C@H](c1ccccc1)CC2=O` [Pinostrobin, pinostrobin] here?
Answer: Its value is >1000 µg/mL.

Question: What about the IC50 (Human recombinant 5-LOX; read-out: 5-LOX IC50) of the same compound?
Answer: Its IC50 is 499 nM.

Question: What about the IC50 (Human recombinant 5-LOX; read-out: 5-LOX IC50 (µg/mL) (converted)) of the same compound?
Answer: Its IC50 is 499 nM.

Question: What about the “fold superior 5-LOX inhibitory activity than BD” value (Human recombinant 5-LOX; relative to BD) of the same compound?
Answer: Its value is 4 fold.

Question: And the “fold superior 5-LOX inhibitory activity to NDGA” value (Human recombinant 5-LOX; relative to NDGA)?
Answer: The value was 10 fold.

Question: And the “IC50 keratinocyte (HaCaT) cells” value [2]?
Answer: Its value is 30.76 µg/mL (≈ 114 µM).

Question: And the “full maximal inhibitory concentration (IC100) keratinocyte (HaCaT) cells” value [2]?
Answer: Its value is > 250 µg/mL.

Question: And the “FRAP (mM FeSO4/g Extract)” value [3]?
Answer: Its value is 1.04 ± 0.01 mM FeSO4/g Extract.

Question: What about the dermal toxicity [4] of the same compound?
Answer: The dermal toxicity was “no dermal toxicity was observed”.

Question: And the MIC (Staphylococcus aureus; Staphylococcus aureus, read-out: MIC)?
Answer: Its MIC is > 200 µg/mL.

Question: And the “MIC” value (Staphylococcus aureus)?
Answer: Its value is >200 µg/mL.

From article PMC10812521, “Boesenbergia rotunda and Its Pinostrobin for Atopic Dermatitis: Dual 5-Lipoxygenase and Cyclooxygenase-2 Inhibitor and Its Mechanistic Study through Steady-State Kinetics and Molecular Modeling” (Antioxidants, 2024)
